Values quoted from earlier work, collected in patent US4100185A, “Cyclohexanone 5,6-benzo analogues of prostaglandin E” (Miles Laboratories, Inc., priority 1977, dated 1978).
“Also recorded” adds a separate entry of the source. Read-outs that look alike come from different tables or passages of the source.

Key:
[1] = system: female reproductive system; conditions: in vivo
thyroid = conditions: mice
gastric secretion [2] = conditions: dogs
tracheal smooth muscle = conditions: in vitro
growth hormone = conditions: rats
[3] = system: adrenergic nervie endings; conditions: guinea pig
adrenal glands = conditions: hypophysectimized rats
[4] = system: ovarian progesterone secretion; conditions: sheep
blood platelets = conditions: in vitro
[5] = system: motor pathways in the central nervous system
[6] = variety of mammals
gastric secretion [7] = conditions: man

Row | SMILES | effect on fertility, gestation, labor [1] | effect on thyroid activity (thyroid) | effect on gastric secretion (gastric secretion [2]) | effect on tracheal smooth muscle (tracheal smooth muscle) | effect on growth hormone (growth hormone) | effect on transmitter release from adrenergic nerve endings [3] | effect on steroidogenesis in the adrenal glands (adrenal glands) | effect on ovarian progesterone secretion [4] | effect on thrombogenesis (blood platelets) | effect on transmission in motor pathways [5] | luteolytic effect [6] | effect on gastric secretion (gastric secretion [7])
1 | CCCCC[C@H](O)/C=C/[C@H]1[C@H](O)CC(=O)[C@@H]1C/C=C\CCCC(=O)O [PGE2] | exerts potent oxytocic effects in inducing labor | increase thyroid activity | inhibit gastric secretion | relax | increase release of growth hormone | inhibit transmitter release from adrenergic nervie endings | stimulate steriodogenesis in the adrenal glands | – | – | – | – | –
2 | CCCCC[C@H](O)/C=C/[C@H]1[C@H](O)CC(=O)[C@@H]1CCCCCCC(=O)O [PGE1, prostaglandin E1] | – | increase thyroid activity | inhibit gastric secretion | relax | increase release of growth hormone | inhibit transmitter release from adrenergic nervie endings | stimulate steriodogenesis in the adrenal glands | inhibit ovarian progesterone secretion | inhibits thrombogenesis in vitro | retards | – | –
3 | CCCCC[C@H](O)/C=C/[C@@H]1[C@@H](CCCCCCC(=O)O)[C@@H](O)C[C@H]1O [PGF1α] | – | increase thyroid activity | – | – | – | – | stimulate steriodogenesis in the adrenal glands | inhibit ovarian progesterone secretion | – | – | act as luteolytic factors | –
4 | CCCCC[C@H](O)/C=C/[C@H]1C=CC(=O)[C@@H]1CCCCCCC(=O)O [PGA1] | – | – | inhibit gastric secretion | – | increased synthesis of that hormone | – | – | – | – | – | – | exhibits similar activity in man
5 | CCCCC[C@H](O)/C=C/[C@@H]1[C@@H](C/C=C\CCCC(=O)O)[C@@H](O)C[C@H]1O [PGF2α] | has contragestational effects; also recorded: induces spontaneous abortions in early pregnancy | – | – | contracts the smooth muscle | – | – | – | – | – | facilitates transmission in motor pathways in the central nervous system | – | –
6 | CCCCC[C@H](O)/C=C/[C@@H]1[C@@H](CCCCCCC(=O)O)[C@H](O)C[C@H]1O [PGF1β] | – | increase thyroid activity | – | – | – | – | – | – | – | – | – | –
